Test results published in patent US7488811B2, “Macrolide compounds endowed with antiinflammatory activity” (Zambon Group S.p.A., priority 2002, dated 2009).

Legend:
[1] = tested on: PMA-induced oedema in mouse ear; assay: Acute contact dermatitis: TPA (PMA)-induced ear oedema in mice; type: in vivo; settings: CD1 mice, 500 μg/ear topical in TPDS 30 min before TPA 0.01%, 6 h
Description: Groups of 5-6 CD1 mice (18-24 g) were used. • Administration of the compounds
All the macrolide compounds were dissolved in Trans-phase Delivery System (TPDS), a vehicle formed by 10% benzyl alcohol, 40% acetone and 50% isopropanol.
15 microlitres of the compounds (500 μg), dissolved in TPDS, were applied topically to the inner surface of an ear; 30 minutes later, 12 microlitres of a solution of tetradecanoylphorbol acetate (TPA) at a concentration of 0.01% dissolved in acetone were applied to the same area.
Six hours later, the animals were sacrificed by inhalation of CO2. • Evaluation of the results
Two methods were used to evaluate the auricular oedema: • a) Weight of a given portion of auricular pinna. • b) Measurement of the auricular thickness using precision spring callipers.
The degree of oedema was calculated by subtracting the weight or the thickness of the untreated ear from that of the contralateral treated ear. To determine the degree of remission of the oedema, the difference (weight or thickness) of the groups treated with TPA+macrolides was then compared with the groups treated with TPA alone.
The activity of the macrolide compounds was measured by using the modified method of Zunic et al. (1998): MDL (Lysyl) GDP, a non-toxic muramyl dipeptide derivative inhibits cytokine production by activated macrophages and protects mice from phorbol ester- and oxazolone-induced inflammation (J. Invest. Dermatol., 111(1), 77-82).
The data relating to erythromycin and azythromycin concern the treatment with a single dose of 500 μg/ear.

[2] = tested on: Enterococcus faecalis ATCC 29212; assay: Antibiotic activity, MIC or activity at 128 μg/ml; type: cell-based; settings: Enter. faecalis ATCC 29212; for MIC: Enterococcus faecalis, ATCC29212
Description: (§1) The MIC values were determined in liquid earth according to the method described in “Manual of Clinical Microbiology, 7th edition (1999), American Society for Microbiology”.

[3] = tested on: Streptococcus pneumoniae ATCC 49619; assay: Antibiotic activity, MIC in liquid medium; type: cell-based; settings: ATCC49619, Strep. pneum ATTC 49619
Description: as §1

[4] = tested on: Staphylococcus aureus ATCC 29213; assay: Antibiotic activity, MIC in liquid medium; type: cell-based; settings: ATCC29213, Staph. aureus ATCC 29213
Description: as §1

[5] = tested on: Streptococcus pyogenes ATCC 19615; assay: Antibiotic activity at 128 μg/ml; type: cell-based; settings: Strep. pyogenes ATTC 19615; 128 μg/ml
Description: as §1

[6] = tested on: Staphylococcus aureus ATCC 6538; assay: Antibiotic activity at 128 μg/ml; type: cell-based; settings: Staph. aureus ATCC 6538; 128 μg/ml
Description: as §1

[7] = method a: weight of a given portion of auricular pinna
[8] = method b: auricular thickness by precision spring callipers

MIC [2] | MIC [3] | MIC [4] | Compound | inhibition in vivo at 500 µg/ear [1, 7] | Antibiotic activity at 128 μg/ml [2] | Antibiotic activity at 128 μg/ml [5] | Antibiotic activity at 128 μg/ml [6] | inhibition in vivo at 500 µg/ear [1, 8]
 |  |  | CC[C@H]1OC(=O)[C@H](C)[C@@H](O[C@H]2C[C@@](C)(OC)[C@@H](O)[C@H](C)O2)[C@H](C)[C@@H](O[C@@H]2O[C@H](C)C[C@H](N(C)C)[C@H]2O)[C@](C)(O)C[C@@H](C)CN(C)[C@H](C)[C@@H](O)[C@]1(C)O [Azythromycin, reference compound] | 40% |  |  |  | 
> 128 µg/mL | > 128 µg/mL | > 128 µg/mL | CC[C@H]1OC(=O)[C@H](C)[C@@H](O)[C@H](C)[C@@H](O[C@@H]2O[C@H](C)C[C@H](N(C)C)[C@H]2O)C(C)(O)C[C@@H](C)[C@H](O)[C@H](C)[C@@H](O)[C@]1(C)O (some centres unmarked) [Compound 2] | 36.2% | not active | not active | not active | 
> 128 µg/mL | > 128 µg/mL | > 128 µg/mL | CC[C@H]1OC(=O)[C@H](C)[C@@H](O)[C@H](C)[C@@H](O[C@@H]2O[C@H](C)C[C@H]([N+](C)(C)[O-])[C@H]2O)C(C)(O)C[C@@H](C)[C@H](O)[C@H](C)[C@@H](O)[C@]1(C)O (some centres unmarked) [Compound 3] | 65.2% | not active | not active | not active | 
 |  |  | CC[C@H]1OC(=O)[C@H](C)[C@@H](O)[C@H](C)[C@@H](O[C@@H]2O[C@H](C)CC(N(C)CCCNCc3nccs3)[C@H]2O)C(C)(O)C[C@@H](C)[C@H](O)[C@H](C)[C@@H](O)[C@]1(C)O (some centres unmarked) [Compound 5] | 53.4% |  |  |  | 
 |  |  | CC[C@H]1OC(=O)[C@H](C)[C@@H](O)[C@H](C)[C@@H](O[C@@H]2O[C@H](C)CC(N(C)C(=O)CNCCN(C)C)[C@H]2O)C(C)(O)C[C@@H](C)[C@H](O)[C@H](C)[C@@H](O)[C@]1(C)O (some centres unmarked) [Compound 6] | 30.9% |  |  |  | 
 |  |  | CC[C@H]1OC(=O)[C@H](C)[C@@H](O)[C@H](C)[C@@H](O[C@@H]2O[C@H](C)C[C@H](N(C)CCNCCNCc3nccs3)[C@H]2O)[C@@](C)(O)C[C@@H](C)[C@H](O)[C@H](C)[C@@H](O)[C@]1(C)O [Compound 7] | 45% |  |  |  | 
 |  |  | CC[C@H]1OC(=O)[C@H](C)[C@@H](O)[C@H](C)[C@@H](O[C@@H]2O[C@H](C)C=C[C@H]2O)C(C)(O)C[C@@H](C)[C@H](O)[C@H](C)[C@@H](O)[C@]1(C)O (some centres unmarked) [Compound 9] | 32.4% |  |  |  | 
> 128 µg/mL | > 128 µg/mL | > 128 µg/mL | CC[C@H]1OC(=O)[C@H](C)[C@@H](O)[C@H](C)[C@@H](O[C@@H]2O[C@H](C)C[C@H](N(C)C)[C@H]2O)C(C)(O)C[C@@H](C)/C(=N\O)[C@H](C)[C@@H](O)[C@]1(C)O (some centres unmarked) [Compound 11] | 70.2% | not active | not active | not active | 
> 128 µg/mL | > 128 µg/mL | > 128 µg/mL | CC[C@H]1OC(=O)[C@H](C)[C@@H](O)[C@H](C)[C@@H](O[C@@H]2O[C@H](C)C[C@H]([N+](C)(C)[O-])[C@H]2O)C(C)(O)C[C@@H](C)/C(=N\O)[C@H](C)[C@@H](O)[C@]1(C)O (some centres unmarked) [Compound 12] | 87.4% | not active | not active | not active | 
> 128 µg/mL | > 128 µg/mL | > 128 µg/mL | CC[C@H]1OC(=O)[C@H](C)[C@@H](O)[C@H](C)[C@@H](O[C@@H]2O[C@H](C)C=C[C@H]2O)C(C)(O)C[C@@H](C)/C(=N\O)[C@H](C)[C@@H](O)[C@]1(C)O (some centres unmarked) [Compound 13] | 77.4% | not active | not active | not active | 
 |  |  | CC[C@H]1OC(=O)[C@H](C)[C@@H](O)[C@H](C)[C@@H](O[C@@H]2O[C@H](C)C[C@H](N(C)C)[C@H]2O)C(C)(O)C[C@@H](C)/C(=N\OC)[C@H](C)[C@@H](O)[C@]1(C)O (some centres unmarked) [Compound 15] | 31.6% | not active | not active | not active | 
 |  |  | CC[C@H]1OC(=O)[C@H](C)[C@@H](O)[C@H](C)[C@@H](O[C@@H]2O[C@H](C)C[C@H]([N+](C)(C)[O-])[C@H]2O)C(C)(O)C[C@@H](C)/C(=N\OC)[C@H](C)[C@@H](O)[C@]1(C)O (some centres unmarked) [Compound 16] | 72.3% |  |  |  | 
 |  |  | CC[C@H]1OC(=O)[C@H](C)[C@@H](O)[C@H](C)[C@@H](O[C@@H]2O[C@H](C)C=C[C@H]2O)C(C)(O)C[C@@H](C)/C(=N\OC)[C@H](C)[C@@H](O)[C@]1(C)O (some centres unmarked) [Compound 17] | 41.9% |  |  |  | 
> 128 µg/mL | > 128 µg/mL | > 128 µg/mL | CC[C@H]1OC(=O)[C@H](C)[C@@H](O)[C@H](C)[C@H](O[C@@H]2O[C@H](C)CC([N+](C)(C)[O-])[C@@H]2O)[C@](C)(O)C[C@@H](C)/C(=N\OCCNCCNCc2nccs2)[C@H](C)[C@H](O)[C@]1(C)O (some centres unmarked) [Compound 20] |  |  |  |  | 49.9%
> 128 µg/mL | > 128 µg/mL | > 128 µg/mL | CC[C@H]1OC(=O)[C@H](C)[C@@H](O)[C@H](C)[C@H](O[C@@H]2O[C@H](C)CC[C@@H]2O)[C@](C)(O)C[C@@H](C)/C(=N\OCCNCCNCc2nccs2)[C@H](C)[C@H](O)[C@]1(C)O [Compound 21] |  | not active | not active | not active | 74.1%
 |  |  | CC[C@H]1OC(=O)[C@H](C)[C@@H](O)[C@H](C)[C@@H](O[C@@H]2O[C@H](C)CC[C@H]2O)C(C)(O)C[C@@H](C)/C(=N\OCCNCCNCc2ccco2)[C@H](C)[C@@H](O)[C@]1(C)O (some centres unmarked) [Compound 26] |  | not active | not active | not active | 
> 128 µg/mL | > 128 µg/mL | > 128 µg/mL | CC[C@H]1OC(=O)[C@H](C)[C@@H](O)[C@H](C)[C@@H](O[C@@H]2O[C@H](C)C[C@H](N(C)C)[C@H]2O)C(C)(OC)C[C@@H](C)[C@H](O)[C@H](C)[C@@H](O)[C@]1(C)O (some centres unmarked) [Compound 27] |  |  |  |  | 
 |  |  | CC[C@H]1OC(=O)[C@H](C)[C@@H](O)[C@H](C)[C@H](OC2O[C@H](C)C[C@H](N(C)C(C)=O)[C@@H]2O)C(C)(OC)C[C@H](C)/C(=N\O)[C@H](C)[C@@H](O)[C@]1(C)O (some centres unmarked) [Compound 29] | 44.5% |  |  |  | 
 |  |  | CC[C@H]1OC(=O)[C@H](C)[C@@H](O)[C@H](C)[C@H](OC2O[C@H](C)C[C@H](N(C)CCCOCc3cccnc3)[C@@H]2O)C(C)(O)C[C@H](C)[C@H](O)[C@H](C)[C@@H](O)[C@]1(C)O (some centres unmarked) [Compound 30] | 39.8% |  |  |  | 
